From ChEMBL document CHEMBL1932926, “New substituted C-19-andrographolide analogues with potent cytotoxic activities” (2012) come the findings set out here.

Type in all cases: functional
Holding throughout (settings): read-out: ED50 (the source's name)

The test system of one test is Col2. The test is described as follows: Cytotoxicity against human Col2 cells by SRB assay.
The nature of test [1]: Cytotoxicity against rat ASK cells by SRB assay.
The test system of the next test is P388. The test can be described thus: Cytotoxicity against mouse P388 cells by SRB assay.
The next test deals with KB. The test is described as follows: Cytotoxicity against human KB cells by SRB assay.
The test system of the next test is Lu1. The test can be described thus: Cytotoxicity against human Lu1 cells by SRB assay.
The test system of a further test is MCF7. The test is described as follows: Cytotoxicity against human MCF7 cells by SRB assay.

As for `C=C1CC[C@@H]2[C@](C)(CO[Si](C)(C)C(C)(C)C)[C@H](O)CC[C@@]2(C)[C@@H]1C/C=C1/C(=O)OC[C@H]1O`, the EC50 with Col2 came to 17.1 µM; in test [1], 15.5 µM; with P388, 8.39 µM; in the test with KB, 40.7 µM; with Lu1, 48.8 µM; in the test with MCF7, 47 µM.
As for `C=C1CC[C@@H]2[C@](C)(CO[Si](C)(C)C(C)(C)C)[C@H](OC(C)=O)CC[C@@]2(C)[C@@H]1C/C=C1/C(=O)OC[C@H]1O`, the EC50 was determined as 11.3 µM in the test on Col2; 8.17 µM in test [1]; 1.71 µM with P388; 11.2 µM in the test on KB; 9.62 µM in the test with Lu1; 9.79 µM in the test with MCF7.
As for `C=C1CC[C@@H]2[C@](C)(CO[Si](C)(C)C(C)(C)C)[C@H](O)CC[C@@]2(C)[C@@H]1C/C=C1/C(=O)OC[C@H]1OC(C)=O`, the EC50 in the test on Col2 was 8.94 µM; in test [1], 3.41 µM; in the test with P388, 1.03 µM; with KB it was 10.7 µM; with Lu1, 10.4 µM; in the test with MCF7, 10.4 µM.
For `C=C1CC[C@@H]2[C@](C)(CO[Si](C)(C)C(C)(C)C)[C@H](OC(C)=O)CC[C@@]2(C)[C@@H]1C/C=C1/C(=O)OC[C@H]1OC(C)=O`, the EC50 worked out at 2.23 µM in the test with Col2; 1.22 µM in test [1]; 0.34 µM with P388; 3.62 µM in the test on KB; 2.92 µM with Lu1; 2.84 µM in the test on MCF7.
Turning to `C=C1CC[C@@H]2[C@](C)(CO[Si](C(C)C)(C(C)C)C(C)C)[C@H](O)CC[C@@]2(C)[C@@H]1C/C=C1/C(=O)OC[C@H]1O`, the EC50 with Col2 was 2.73 µM; in test [1], 2.85 µM; in the test with P388, 0.88 µM; with KB it was 2.73 µM; with Lu1, 3.01 µM; in the test with MCF7 it was 2.88 µM.
`C=C1CC[C@@H]2[C@](C)(CO[Si](C(C)C)(C(C)C)C(C)C)[C@H](OC(C)=O)CC[C@@]2(C)[C@@H]1C/C=C1/C(=O)OC[C@H]1OC(C)=O`: the EC50 amounted to 13.6 µM in the test with Col2; 7.56 µM in test [1]; 1.41 µM with P388; 7.39 µM with KB; 18.8 µM in the test on Lu1; 14 µM in the test with MCF7.
For `C=C1CC[C@@H]2[C@](C)(CO[Si](c3ccccc3)(c3ccccc3)C(C)(C)C)[C@H](O)CC[C@@]2(C)[C@@H]1C/C=C1/C(=O)OC[C@H]1O`, the EC50 in the test with Col2 stood at 9.65 µM; in test [1], 5.54 µM; in the test with P388, 0.68 µM; in the test with KB, 11.1 µM; with Lu1, 11.5 µM; in the test on MCF7, 8.15 µM.
Regarding `C=C1CC[C@@H]2[C@](C)(CO[Si](c3ccccc3)(c3ccccc3)C(C)(C)C)[C@H](OC(C)=O)CC[C@@]2(C)[C@@H]1C/C=C1/C(=O)OC[C@H]1O`, the EC50 in the test on Col2 is 3.8 µM; in test [1] it was 10.5 µM; in the test on P388, 0.5 µM; with KB, 9.86 µM; with Lu1, 10.9 µM; in the test on MCF7, 7.53 µM.
As to `C=C1CC[C@@H]2[C@](C)(CO[Si](c3ccccc3)(c3ccccc3)C(C)(C)C)[C@H](O)CC[C@@]2(C)[C@@H]1C/C=C1/C(=O)OC[C@H]1OC(C)=O`, the EC50 was found to be 10.7 µM with Col2; 12 µM in test [1]; 0.33 µM in the test with P388; 10.5 µM with KB; 11.9 µM in the test with Lu1; 9.63 µM with MCF7.
As to `C=C1CC[C@@H]2[C@](C)(CO[Si](c3ccccc3)(c3ccccc3)C(C)(C)C)[C@H](OC(C)=O)CC[C@@]2(C)[C@@H]1C/C=C1/C(=O)OC[C@H]1OC(C)=O`, the EC50 in the test on Col2 came to 12.3 µM; in test [1], 32.8 µM; with P388, 1.67 µM; in the test with KB, 29 µM; with Lu1 it was 52.9 µM; with MCF7 it was 45.7 µM.
In the case of `C=C1CC[C@@H]2[C@](C)(CO)[C@H](OC(C)=O)CC[C@@]2(C)[C@@H]1C/C=C1/C(=O)OC[C@H]1O`, the EC50 is 27.2 µM in the test on Col2; 58.1 µM in test [1]; 4.78 µM with P388; 35.6 µM with KB; 30.6 µM in the test on Lu1; 26.4 µM with MCF7.
In the case of `C=C1CC[C@@H]2[C@](C)(COC(C)=O)[C@H](O)CC[C@@]2(C)[C@@H]1C/C=C1/C(=O)OC[C@H]1O`, the EC50 was determined as 12.9 µM with Col2; 16.7 µM in test [1]; 2.04 µM in the test on P388; 15.3 µM in the test with KB; 14 µM in the test on Lu1; 18.2 µM with MCF7.
As to `C=C1CC[C@@H]2[C@](C)(COC(C)=O)[C@H](OC(C)=O)CC[C@@]2(C)[C@@H]1C/C=C1/C(=O)OC[C@H]1O`, the EC50 in the test with Col2 worked out at 15.3 µM; in test [1], 22.4 µM; in the test with P388 it was 2.65 µM; in the test with KB, 35.2 µM; in the test on Lu1, 34.7 µM; with MCF7 it was 19.7 µM.
In the case of `C=C1CC[C@@H]2[C@](C)(COC(C)=O)[C@H](O)CC[C@@]2(C)[C@@H]1C/C=C1/C(=O)OC[C@H]1OC(C)=O`, the EC50 came to 15.2 µM with Col2; 16.3 µM in test [1]; 1.62 µM in the test with P388; 26.4 µM in the test with KB; 19.8 µM in the test with Lu1; 18.5 µM with MCF7.
As to `C=C1CC[C@@H]2[C@](C)(COC(C)=O)[C@H](OC(C)=O)CC[C@@]2(C)[C@@H]1C/C=C1/C(=O)OC[C@H]1OC(C)=O`, the EC50 in the test on Col2 turned out to be 10.8 µM; in test [1], 11.4 µM; in the test on P388, 1.4 µM; in the test with KB, 11.6 µM; with Lu1 it was 12.4 µM; in the test with MCF7, 10 µM.
For `C=C1CC[C@@H]2[C@](C)(CO)[C@H](OC(C)=O)CC[C@@]2(C)[C@@H]1C/C=C1/C(=O)OC[C@H]1OC(C)=O`, the EC50 with Col2 worked out at 10.2 µM; in test [1], 11.5 µM; in the test with P388, 0.69 µM; in the test with KB it was 11.7 µM; in the test on Lu1 it was 8.75 µM; in the test with MCF7, 11 µM.
`C=C1CC[C@@H]2[C@](C)(COC(c3ccccc3)(c3ccccc3)c3ccccc3)[C@H](O)CC[C@@]2(C)[C@@H]1C/C=C1/C(=O)OC[C@H]1O`: the EC50 with Col2 was 2.73 µM; in test [1], 2.86 µM; in the test with P388 it was 0.45 µM; in the test on KB it was 2.42 µM; with Lu1, 0.88 µM; in the test with MCF7, 2.72 µM.
Consider `C=C1CC[C@@H]2[C@](C)(COC(c3ccccc3)(c3ccccc3)c3ccccc3)[C@H](OC(C)=O)CC[C@@]2(C)[C@@H]1C/C=C1/C(=O)OC[C@H]1OC(C)=O`, for which the EC50 worked out at 22.8 µM in the test on Col2; 15.3 µM in test [1]; 1.92 µM in the test on P388; 9.77 µM with KB; 8.37 µM in the test with Lu1; 22.7 µM with MCF7.
On to `C=C1CC[C@@H]2[C@]3(C)COC(C)(C)O[C@@H]3CC[C@@]2(C)[C@@H]1C/C=C1/C(=O)OC[C@H]1O`, for which the EC50 in the test with Col2 stood at 39.8 µM; in test [1], 52.2 µM; in the test on P388, 3.78 µM; in the test on KB, 66.5 µM; in the test with Lu1, 53 µM; with MCF7, 42.8 µM.
Regarding `C=C1CC[C@@H]2[C@](C)(CO)[C@H](O)CC[C@@]2(C)[C@@H]1C/C=C1/C(=O)OC[C@H]1O` [ANDROGRAPHOLIDE], the EC50 with Col2 amounted to 13.6 µM; in test [1], 16.2 µM; with P388, 2.25 µM; in the test with KB, 27.4 µM; in the test with Lu1, 13 µM; in the test with MCF7, 15.4 µM.
For `Cc1c2ccncc2c(C)c2c1[nH]c1ccccc12` [ELLIPTECINE], the EC50 with Col2 is 2.72 µM; in test [1], 3.56 µM; in the test with P388, 2.44 µM; in the test with KB it was 2.46 µM; in the test with Lu1 it was 1.62 µM; with MCF7, 2.71 µM.
